US20040019082A1, “Reversible infertility in male mice following oral administration of alkylated imino sugars: a non-hormonal approach to male contraception” (United Therapeutics Corporation, priority 2002, published 2004)
Read-outs that look alike come from different tables or passages of the source.

What was measured:
female C57BL/6 mice = assay: Mating assay, fertility of treated female mice; format: in vivo, mouse; settings: 1200 mg/kg/day for five weeks, four-day mating with untreated males, n=5
Method: Mating assays—To assess the fertility of male mice that were fed on a diet containing an iminosugar, a mating assay was used: typically six week old male C57BL/6 mice in groups of three were administered diet containing compound for five weeks (unless otherwise specified), after which each of them was caged with four untreated female C57BL/6 mice, and provided with standard pelleted chow. Females were at least 11 weeks old, and age-matched in each experiment. The male was removed from the females after 7 or 9 days, depending on the experiment; the females were monitored for vaginal mucous plugs, pregnancies, and, if any, litter sizes. To study any effect on female fertility six-week-old female C57BL/6 mice were treated with NB-DNJ for five weeks, after which each of them was caged with a non-treated age-matched male for four days.
Following a four-day mating period with untreated males, 100% of treated (n=5) as well as of non-treated females (n=4) became pregnant; these mice had 6.2±2.7 and 7.8±1.0 pups per litter, respectively.

epididymal sperm = assay: Epididymal sperm count; format: in vivo, mouse; settings: at loss of fertility caused by the drug
[1] = system: mouse models with impaired GSL degradation; settings: in vivo; cited from earlier work
[2] = system: testosterone, luteinising and follicle-stimulating hormones; assay: Endocrinological assays; format: in vivo, mouse
Method: Endocrinological assays—Following termination of mice by asphyxiation in CO2 and cervical dislocation, blood was obtained via cardiac puncture, which was allowed to clot at room temperature (RT). Serum was obtained by centrifugation, and stored at −80° C. until use. Testosterone, luteinising and follicle-stimulating hormones were measured by methods well-known in the art (Huhtaniemi, I., Nikula, H. & Rannikko, S. (1985) J Clin Endocrinol Metab 61, 698-704; Haavisto, A. M., Pettersson, K., Bergendahl, M., Perheentupa, A., Roser, J. F. & Huhtaniemi, I. (1993) Endocrinology 132, 1687-91; van Casteren, J. I., Schoonen, W. G. & Kloosterboer, H. J. (2000) Biol Reprod 62, 886-94.)

[3] = system: ganglioside GM1 on the surface of mouse splenocytes; settings: cited from earlier work
epididymal spermatozoa = assay: Computer-assisted sperm motility analysis; format: in vivo, mouse; settings: mean ± SD, n ≧ 3
Method: Motility analysis. Mice were terminated by asphyxiation in CO2 and cervical dislocation, and caudae epididymides were removed with vasa deferentia. Spermatozoa were collected in pre-warmed M2 medium (Sigma) by stripping the vasa deferentia and by applying mild pressure to the caudae epididymides; the cells were incubated at 37° C. for 1 hour, and videographed using a Leica DM IRB microscope fitted with a JVC TK-1281 camera. Computer-assisted sperm motility analysis was performed using a Hobson Sperm Tracker (Hobson Vision Ltd., UK) at 50 frames per second. Motility parameters of each sperm sample were measured in triplicate, collecting data from 200 sperm tracks per determination.

[4] = system: female mice of strain 129; assay: Fertility of treated female mice of strain 129; format: in vivo, mouse; settings: 2400 mg/kg day for 12 weeks, 15 week-old females, caged with untreated males
Method: NB-DNJ was administered at 2400 mg/kg day for 12 weeks to 15 week-old female mice of strain 129. After this, the drug was withdrawn and the females were caged with untreated males of strain 129. […] The mice in this experiment were heterozygous for a disruption in the gene encoding ceramide galactosyltransferase. These mice are phenotypically indistinguishable from wild-type 129 mice and reproduce normally (Coetzee et al., (1996), Cell, 86:209-219).

[5] = humans; cited from earlier work
[6] = Body, gonad and organ weights of treated mice; format: in vivo, mouse
seminiferous tubules = assay: Testis histology; format: in vivo, mouse; settings: 50 mg/kg/day (FIG. 4B)
Source text: Histology and Scanning electronmicroscopy—Testes were obtained from mice perfused with 4% paraformaldehyde, 1% gluteraldehyde, kept in the fixative for two days, and transferred to 70% ethanol. Tissues were post-fixed with 2% osmium tetroxide, embedded in araldite, sectioned at 1 μm, and stained with Toluidine Blue. Sections were examined with a Zeiss Axioskop II, and images were acquired with an Axiocam camera, operated by Axiovision 3.0 software.

[7] = highest dose (2400 mg/kg/day), n=10

Q: Which “females that became pregnant” value (female C57BL/6 mice) does the source give for `CCCCN1C[C@H](O)[C@@H](O)[C@H](O)[C@H]1CO` [NB-DNJ, N-butyldeoxynojirimycin] here?
A: 100%

Q: And the pups per litter (female C57BL/6 mice)?
A: 6.2±2.7

Q: What about the epididymal sperm count (epididymal sperm) of the same compound?
A: not associated with a reduction

Q: What about the therapeutic effect [1] of the same compound?
A: therapeutically effective

Q: And the “serum testosterone, FSH, LH and testicular testosterone” value ([2]; 2400 mg/kg/day, p<0.001)?
A: significant reduction

Q: What about the “serum testosterone, FSH, LH and testicular testosterone” value ([2]; 15, 150 or 1200 mg/kg/day) of the same compound?
A: did not change

Q: What about the “reduction of ganglioside GM1 levels” value ([3]; 600 mg/kg per day) of the same compound?
A: 10%

Q: What about the “reduction of ganglioside GM1 levels” value ([3]; 2400 mg/kg per day) of the same compound?
A: 70%

Q: What about the “% motile” value (epididymal spermatozoa; NB-DNJ 15 mg/kg/day) of the same compound?
A: 26 ± 16%

Q: What about the “VCL, curvilinear velocity” value (epididymal spermatozoa; NB-DNJ 15 mg/kg/day) of the same compound?
A: 74 ± 31 μm/sec

Q: And the “VSL, straight line velocity” value (epididymal spermatozoa; NB-DNJ 15 mg/kg/day)?
A: 27 ± 9 μm/sec

Q: What about the “% motile” value (epididymal spermatozoa; NB-DNJ 150 mg/kg/day) of the same compound?
A: 15 ± 6%

Q: What about the “VCL, curvilinear velocity” value (epididymal spermatozoa; NB-DNJ 150 mg/kg/day) of the same compound?
A: 89 ± 31 μm/sec

Q: And the “VSL, straight line velocity” value (epididymal spermatozoa; NB-DNJ 150 mg/kg/day)?
A: 27 ± 8 μm/sec

Q: And the “% motile” value (epididymal spermatozoa; NB-DNJ 1200 mg/kg/day)?
A: 17 ± 7%

Q: And the “VCL, curvilinear velocity” value (epididymal spermatozoa; NB-DNJ 1200 mg/kg/day)?
A: 49 ± 17 μm/sec

Q: And the “VSL, straight line velocity” value (epididymal spermatozoa; NB-DNJ 1200 mg/kg/day)?
A: 18 ± 9 μm/sec

Q: And the “% motile” value (epididymal spermatozoa; NB-DNJ 2400 mg/kg/day)?
A: 9 ± 2%

Q: And the “VCL, curvilinear velocity” value (epididymal spermatozoa; NB-DNJ 2400 mg/kg/day)?
A: 28 ± 21 μm/sec

Q: What about the “VSL, straight line velocity” value (epididymal spermatozoa; NB-DNJ 2400 mg/kg/day) of the same compound?
A: 9 ± 5 μm/sec

Q: And the average litter size [4]?
A: 6 pups

Q: And the “pregnancy after drug withdrawal” value [4]?
A: All females quickly became pregnant

Q: What about the tolerability [5] of the same compound?
A: well tolerated

Q: What about the “weights of testes and epididymal compartments” value ([6]; 1200 and 2400 mg/kg/day) of the same compound?
A: decreased proportionally to body weight

Q: What about the “combined cauda epididymis/vas deferens weight” value [6, 7] of the same compound?
A: 43±7 % of control

Q: And the whole body weight [6, 7]?
A: 60±5 % of control

Q: And the “body or gonad weights” value ([6]; low dose, 15-150 mg/kg/day)?
A: did not affect

Q: And the “morphology of nuclei of mature spermatids” value (seminiferous tubules)?
A: aberrant, heterogeneous morphology

Q: What about the “vacuolization in seminiferous tubules versus controls” value (seminiferous tubules) of the same compound?
A: more extensive vacuolization
